US20250101041A1, “POSITIVE ALLOSTERIC MODULATORS OF THE MUSCARINIC ACETYLCHOLINE RECEPTOR M4” (Vanderbilt University, priority 2022, published 2025)

Molecular target: T1, human mAChR M4 (Homo sapiens, UniProt P08173)
T1 construct: expressed in transfected cells; host or cells: CHO-K1 (American Type Culture Collection), stably expressing hM4 and Gqi5
T1 sequence (P08173 1-479): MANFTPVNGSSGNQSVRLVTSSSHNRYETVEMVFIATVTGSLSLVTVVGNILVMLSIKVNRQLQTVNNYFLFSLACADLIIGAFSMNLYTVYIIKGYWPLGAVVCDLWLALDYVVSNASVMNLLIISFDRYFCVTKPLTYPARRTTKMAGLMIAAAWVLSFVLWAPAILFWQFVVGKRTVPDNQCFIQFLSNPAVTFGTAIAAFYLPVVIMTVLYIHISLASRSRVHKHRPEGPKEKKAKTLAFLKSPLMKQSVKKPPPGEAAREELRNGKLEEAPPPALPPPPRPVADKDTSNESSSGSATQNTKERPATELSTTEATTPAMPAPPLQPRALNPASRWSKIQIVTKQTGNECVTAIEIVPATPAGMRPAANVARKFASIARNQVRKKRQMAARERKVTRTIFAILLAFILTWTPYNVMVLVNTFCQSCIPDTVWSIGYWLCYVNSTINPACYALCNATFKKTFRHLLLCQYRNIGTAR
Assay: mAChR M4 cell-based functional assay: calcium mobilization (Fluo-4, FDSS), potentiation of EC20 acetylcholine response in hM4-Gqi5 CHO-K1 cells
Conditions: human M4; for Emax at 30 µM: CHO-K1, % ACh maximum at 30 μM; for EC50: potentiation of EC20 acetylcholine response, calcium mobilization
Procedure, shortened: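 CHO-K1 cells stably co-expressing human M4 and chimeric Gqi5, loaded with Fluo-4 AM (50 min, 37 °C). Compounds in 11-point 1:3 series added first; EC20 acetylcholine added at 144 s and again at 230 s. Calcium read on FDSS at 1 Hz; EC50 and Emax from four-parameter logistic fit of potentiated EC20 response.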

For `Cc1cc(=O)n2nc(N3CCc4ncc(-c5ccccc5Cl)cc4C3)c(C)c(C)c2n1` [Compound 1-278, 7-(3-(2-chlorophenyl)-7,8-dihydro-1,6-naphthyridin-6(5H)-yl)-2,8,9-trimethyl-4H-pyrimido[1,2-b]pyridazin-4-one], the Emax at 30 µM was 81%.

Compound `Cc1ccc(F)cc1-c1cnc2c(c1)CN(c1nn3c(=O)ccnc3cc1C)CC2` [Compound 1-432, 7-(3-(5-fluoro-2-methylphenyl)-7,8-dihydro-1,6-naphthyridin-6(5H)-yl)-8-methyl-4H-pyrimido [1,2-b]pyridazin-4-one] has an Emax at 30 µM of 80% and an EC50 of 63 nM.

With `Cc1cc2nccc(=O)n2nc1N1CCc2ncc(Nc3ccc(C(C)C)nc3)cc2C1` [Compound 2-101, 7-(3-((6-isopropylpyridin-3-yl)amino)-7,8-dihydro-1,6-naphthyridin-6(5H)-yl)-8-methyl-4H-pyrimido[1,2-b]pyridazin-4-one] the Emax at 30 µM was 65% and the EC50 was 527 nM.

`Cc1cc2nccc(=O)n2nc1N1CCc2ncc(N3CCOC(Cc4ccccc4)C3)cc2C1` (centres unmarked) [Compound 2-99, 7-(3-(2-benzylmorpholino)-7,8-dihydro-1,6-naphthyridin-6(5H)-yl)-8-methyl-4H-pyrimido[1,2-b]pyridazin-4-one] showed an Emax at 30 µM of 66% and an EC50 of 416 nM.

Work on `COC1CN(C(=O)c2cc(=O)n3nc(N4CCc5ncc(C(F)(F)F)cc5C4)c(C)cc3n2)C1` [Compound 1-47, 2-(3-methoxyazetidine-1-carbonyl)-8-methyl-7-(3-(trifluoromethyl)-7,8-dihydro-1,6-naphthyridin-6(5H)-yl)-4H-pyrimido[1,2-b]pyridazin-4-one] yielded an Emax at 30 µM of 103% and an EC50 of 144 nM.

Compound `Cc1cc2nc(C(F)F)cc(=O)n2nc1N1CCc2ncc(-n3cccn3)cc2C1` [Compound 2-26, 7-(3-(1H-pyrazol-1-yl)-7,8-dihydro-1,6-naphthyridin-6(5H)-yl)-2-(difluoromethyl)-8-methyl-4H-pyrimido[1,2-b]pyridazin-4-one] has an Emax at 30 µM of 87% and an EC50 of 105 nM.

In the case of `Cc1cc(=O)n2nc(N3CCc4ncc(-c5cnn6ccccc56)cc4C3)c(C)cc2n1` [Compound 1-288, 2,8-dimethyl-7-(3-(pyrazolo[1,5-a]pyridin-3-yl)-7,8-dihydro-1,6-naphthyridin-6(5H)-yl)-4H-pyrimido[1,2-b] pyridazin-4-one], the Emax at 30 µM is reported as 84% and the EC50 is reported as 311 nM.

With `Cc1c(N2CCc3ncc(-c4ccc5nccn5c4)cc3C2)nn2c(=O)ccnc2c1C` [Compound 1-225, 7-(3-(imidazo[1,2-a]pyridin-6-yl)-7,8-dihydro-1,6-naphthyridin-6(5H)-yl)-8,9-dimethyl-4H-pyrimido[1,2-b]pyridazin-4-one] the Emax at 30 µM was 66% and the EC50 was 232 nM.

`Cc1ccc2c(-c3cnc4c(c3)CN(c3nn5c(=O)ccnc5cc3C)CC4)cccc2n1` [Compound 1-48, 8-methyl-7-(3-(2-methylquinolin-5-yl)-7,8-dihydro-1,6-naphthyridin-6(5H)-yl)-4H-pyrimido[1,2-b]pyridazin-4-one] was tested, and the Emax at 30 µM was 72% and the EC50 was 321 nM.

Compound `Cc1nn(C)c(C)c1-c1cnc2c(c1)CN(c1nn3c(=O)cc(C(F)F)nc3c(C)c1C)CC2` [Compound 1-310, 2-(difluoromethyl)-8,9-dimethyl-7-(3-(1,3,5-trimethyl-1H-pyrazol-4-yl)-7,8-dihydro-1,6-naphthyridin-6(5H)-yl)-4H-pyrimido[1,2-b]pyridazin-4-one] has an Emax at 30 µM of 86% and an EC50 of 136 nM.

`Cc1ccc(-c2cnc3c(c2)CN(c2nn4c(=O)ccnc4c(C)c2C)CC3)cc1F` [Compound 1-143, 7-(3-(3-fluoro-4-methylphenyl)-7,8-dihydro-1,6-naphthyridin-6(5H)-yl)-8,9-dimethyl-4H-pyrimido[1,2-b]pyridazin-4-one] was tested, and the Emax at 30 µM was 102% and the EC50 was 416 nM.

With `Cc1c(N2CCc3ncc(-c4ccc(C5CC5)nc4)cc3C2)nn2c(=O)ccnc2c1C` [Compound 1-91, 7-(3-(6-Cyclopropylpyridin-3-yl)-7,8-dihydro-1,6-naphthyridin-6(5H)-yl)-8,9-dimethyl-4H-pyrimido[1,2-b]pyridazin-4-one] the Emax at 30 µM was 83% and the EC50 was 127 nM.

Work on `Cc1c(N2CCc3ncc(C(F)(F)F)cc3C2)nn2c(=O)ccnc2c1C` [Compound 1-64, 8,9-dimethyl-7-(3-(trifluoromethyl)-7,8-dihydro-1,6-naphthyridin-6(5H)-yl)-4H-pyrimido[1,2-b]pyridazin-4-one] yielded an Emax at 30 µM of 102% and an EC50 of 91 nM.

For `Cc1cc2nccc(=O)n2nc1N1CCc2ncc(Nc3cccc(F)n3)cc2C1` [Compound 2-107, 7-(3-((6-fluoropyridin-2-yl)amino)-7,8-dihydro-1,6-naphthyridin-6(5H)-yl)-8-methyl-4H-pyrimido[1,2-b]pyridazin-4-one], the Emax at 30 µM was 79% and the EC50 was 437 nM.

`Cc1cc(=O)n2nc(N3CCc4ncc(N5CCC6(CC5)COC6)cc4C3)c(C)c(C)c2n1` [Compound 2-47, 7-(3-(2-oxa-7-azaspiro[3.5]nonan-7-yl)-7,8-dihydro-1,6-naphthyridin-6(5H)-yl)-2,8,9-trimethyl-4H-pyrimido[1,2-b]pyridazin-4-one] was tested, and the Emax at 30 µM was 66% and the EC50 was 2150 nM.

Compound `Cc1cc2nc(C(F)(F)F)cc(=O)n2nc1N1CCc2ncc(N3CCCn4nccc43)cc2C1` [Compound 2-11, 7-(3-(6,7-dihydropyrazolo[1,5-a]pyrimidin-4(5H)-yl)-7,8-dihydro-1,6-naphthyridin-6(5H)-yl)-8-methyl-2-(trifluoromethyl)-4H-pyrimido[1,2-b]pyridazin-4-one] has an Emax at 30 µM of 115% and an EC50 of 19 nM.

With `Cc1cc(=O)n2nc(N3CCc4ncc(NCc5csc(C)n5)cc4C3)c(C)c(C)c2n1` [Compound 2-50, 2,8,9-trimethyl-7-(3-(((2-methylthiazol-4-yl)methyl)amino)-7,8-dihydro-1,6-naphthyridin-6(5H)-yl)-4H-pyrimido[1,2-b]pyridazin-4-one] the Emax at 30 µM was 53% and the EC50 was 837 nM.

`Cc1cc2nc(C(F)F)cc(=O)n2nc1N1CCc2ncc(N3CCOc4ncccc43)cc2C1` [Compound 2-29, 2-(difluoromethyl)-7-(3-(2,3-dihydro-1H-pyrido[2,3-b][1,4]oxazin-1-yl)-7,8-dihydro-1,6-naphthyridin-6(5H)-yl)-8-methyl-4H-pyrimido[1,2-b]pyridazin-4-one] was tested, and the Emax at 30 µM was 90% and the EC50 was 13 nM.

For `COCc1cc(=O)n2nc(N3CCc4ncc(-c5cnc(Cl)cc5C)cc4C3)c(C)c(C)c2n1` [Compound 1-379, 7-(3-(6-chloro-4-methylpyridin-3-yl)-7,8-dihydro-1,6-naphthyridin-6(5H)-yl)-2-(methoxymethyl)-8,9-dimethyl-4H-pyrimido[1,2-b]pyridazin-4-one], the Emax at 30 µM was 109% and the EC50 was 357 nM.

Compound `Cc1cc2nccc(=O)n2nc1N1CCc2ncc(-c3ccc(C#N)nc3)cc2C1` [Compound 1-316, 5-(6-(8-methyl-4-oxo-4H-pyrimido[1,2-b]pyridazin-7-yl)-5,6,7,8-tetrahydro-1,6-naphthyridin-3-yl)picolinonitrile] has an Emax at 30 µM of 71%.

For `Cc1cc2nc(C3CC3)cc(=O)n2nc1N1CCc2ncc(C(F)(F)F)cc2C1` [Compound 1-27, 2-cyclopropyl-8-methyl-7-(3-(trifluoromethyl)-7,8-dihydro-1,6-naphthyridin-6(5H)-yl)-4H-pyrimido[1,2-b]pyridazin-4-one], the Emax at 30 µM was 76% and the EC50 was 38 nM.

`COCc1cc(=O)n2nc(N3CCc4ncc(C(F)(F)F)cc4C3)c(C)c(C)c2n1` [Compound 1-109, 2-(Methoxymethyl)-8,9-dimethyl-7-(3-(trifluoromethyl)-7,8-dihydro-1,6-naphthyridin-6(5H)-yl)-4H-pyrimido[1,2-b]pyridazin-4-one] gave an Emax at 30 µM of 79% and an EC50 of 60 nM.

`Cc1cc2nccc(=O)n2nc1N1CCc2ncc(Nc3cccnc3)cc2C1` [Compound 2-88, 8-methyl-7-(3-(pyridin-3-ylamino)-7,8-dihydro-1,6-naphthyridin-6(5H)-yl)-4H-pyrimido[1,2-b]pyridazin-4-one] was tested, and the Emax at 30 µM was 106% and the EC50 was 173 nM.

In the case of `Cc1cc2nc(C(F)(F)F)cc(=O)n2nc1N1CCc2ncc(Nc3ccncc3F)cc2C1` [Compound 2-160, 7-(3-((3-fluoropyridin-4-yl)amino)-7,8-dihydro-1,6-naphthyridin-6(5H)-yl)-8-methyl-2-(trifluoromethyl)-4H-pyrimido[1,2-b]pyridazin-4-one], the Emax at 30 µM is reported as 92% and the EC50 is reported as 8 nM.

With `Cc1c(N2CCc3ncc(-c4cccnc4)cc3C2)nn2c(=O)cc(C(F)F)nc2c1C` [Compound 1-155, 2-(difluoromethyl)-8,9-dimethyl-7-(3-(pyridin-3-yl)-7,8-dihydro-1,6-naphthyridin-6(5H)-yl)-4H-pyrimido[1,2-b]pyridazin-4-one] the Emax at 30 µM was 91% and the EC50 was 62 nM.

`[2H]C1([2H])Cc2ncc(-c3ccnn3C)cc2C([2H])([2H])N1c1nn2c(=O)ccnc2cc1C` [Compound 1-449, 8-methyl-7-(3-(1-methyl-1H-pyrazol-5-yl)-7,8-dihydro-1,6-naphthyridin-6(5H)-yl-5,5,7,7-d4)-4H-pyrimido[1,2-b]pyridazin-4-one] showed an Emax at 30 µM of 93% and an EC50 of 283 nM.
